Here are results for 1 substance from patent US20080305995A1, “Royal Jelly Peptide and Composition Containing the Same” (priority 2003, published 2008).

The test system of assay [1] is lymphocyte cell derived from a mouse spleen. The assay can be described thus: Immunity activation test (alamar blue, lymphocyte growth). To be noted: 3 μg/ml and 6 μg/ml, every 12 hours for 4 days, compared with no addition (FIG. 9). It is filed as cell-based, ICR type mice. Here is the method:
For the laboratory animal, ICR type mice (female, Nippon SLC) were used.
Whereas, for the medium, an RPMI medium (manufactured by Nissui Pharmaceutical Co., Ltd.) containing 10% fetal calf serum (FCS), 2 mM L-glutamine, 50 μM 2-mercaptoethanol, 100 Units/ml penicillin, and 100 μg/ml streptomycin was used. Thus, culturing was carried out in 5% CO2 at 37° C. under wet conditions.
Namely, the mice anesthetized with diethyl ether were subjected to cervical vertebrae dislocation, and fixed. Then, by using scissors for dissection and tweezers, the spleen was excised, and transferred to a dish containing therein 10 ml of PBS (−) (137 mM NaCl, 2.7 mM KCl, 2 mM Na2HPO4-12HyO, 1.5 mM KH2PO4). In the dish, the spleen was homogenized. […]
The lymph cell suspension controlled was dyed with a 0.4% trypan blue solution, and the number of cells was counted by means of a Burker-Turk hemocytomer. […]
The lymph cell suspension controlled in the item <bb was added in an amount of 100 μl per well into a 96-well microplate (manufactured by IWAKI Co.). […] Thus, the changes in absorbance were measured by means of a microplate reader (manufactured by Nalge Nunc International Co.) set at a wavelength of 590 to 620 nm every 12 hours for 4 days to analyze the effects of each fraction and isolated compound on the lymphocytes. […]
(Resazurin is reduced to fluorescent resorufin, in cell work by metabolically active cells.)

A further assay deals with honeybee larvae. The experiment in a line: Effect of inducing differentiation to queen bees (honeybee artificial breeding, peptide in artificial diet). The assay is classed as in vivo, Western honeybees (Apis mellifela). Here is the method:
Functional analysis was carried out by using the royal jelly peptide obtained in Example 6. Specifically, honeybees were bred according to the existing honeybee artificial breeding method. In this process, 500 ng of the royal jelly peptide was added in the artificial diet to be administered per honeybee. On the other hand, for the control group, bovine serum albumin was used in place of the royal jelly peptide.
The growth rate from larvae to imagines is about 20%. […] From this, it can be considered that the royal jelly peptide of the invention of this invention is […] having an auxiliary function in inducing differentiation to queen bees.

[2] abbreviates: 500 ng per honeybee in artificial diet, 24 first instar larvae.
[3] abbreviates: 500 ng per honeybee in artificial diet, number among imagines.

For “apisimin (KTSISVKGESNVDVVSQINSLVSSIVSGANVSAVLLAQTLVNILQILIDANVFA) [Recombinant peptide, Royal jelly peptide of 54 amino acid residues (apisimin), expressed in E. coli as thioredoxin fusion, cleaved with Factor Xa]”, the “effect on the growth of lymphocyte cells (alamar blue absorbance)” value in assay [1] is listed as “remarkably exhibited”. Further, in the assay on honeybee larvae (setting [2]), the Number of imagines amounted to 4, the “Number of last instar larvae” value amounted to 14 and the Number of pupae is 8. In addition, in the assay with honeybee larvae (setting [3]), the “Caste: Intermediates” value is 1, the “Caste: Queen” value was 0 and the “Caste: Working bee” value was found to be 3. Moreover, in the assay with honeybee larvae (Table 1 experiment), the “growth rate from larvae to imagines” value is recorded as “about 20%”. Further, in the assay with honeybee larvae (larvae to which the royal jelly peptide had been administered), the “emergence of intermediates out of the larvae” value is reported as “intermediates can be allowed to emerge”.
